Source: patent US9943844B2, “Microfluidic evaluation system for evaluating the efficacy of an antiperspirant product and associated method” (L'OREAL, priority 2013, dated 2018)
Where two headings read alike, the source gives them in different places.

Legend:
[1] = Microfluidic evaluation of antiperspirant efficacy: clog formation at the confluence of secondary (sweat) channel and main channel, seen by phase contrast microscopy
Description: The invention also has for object a method for evaluating the efficacy of an antiperspirant product comprising the following steps: • supplying an evaluation system 1 such as described hereinabove; • injecting natural and/or artificial sweat into the or each secondary channel 9 of the microfluidic chip 5 from the sweat source 3; • injecting at least one antiperspirant product into the main channel 7; • determining at least one physical-chemical parameter that represents the efficacy of the antiperspirant agent considered; and • evaluating the efficacy of the antiperspirant product using the determined physical-chemical parameter.
The step of filling is followed by a step of distributing, during which the antiperspirant product flowing in the main channel 7 and the sweat flowing in the secondary channel or channels 9 react together, in particular on the zones of confluence between the sweat flowing in the secondary channel or channels 9 and the antiperspirant product flowing in the main channel 7. According to the efficacy of the antiperspirant product, during this step of distributing, the interaction between the sweat and the antiperspirant product leads to the formation of clogs at the outlet 25 of the secondary channel or channels 9.
These values can in particular be Boolean values. For example, the physical-chemical parameter measured is the formation or not of a clog, and it is concluded that the antiperspirant product tested is effective if the formation of a clog is observed during the method. If no formation of a clog is observed, non-efficacy is concluded for the antiperspirant product.
These tests were conducted with the microfluidic chip 4 described hereinabove, and by using as imaging tool 45 a phase contrast microscope.
The injection of the sweat and of the antiperspirant product was carried out according to the sequence described in the table 1.
It is considered that the antiperspirant product is not effective when no clog is formed in the secondary channel 9. In this case, the sweat of the secondary channel 9 can freely flow in the main channel 7.

[2] = cited from earlier work

Row | Substance | Evaluation result ([1]; concentration 5%, injection sequence of table 1, effective = formation of a clog in secondary channel preventing sweat flow, not effective = no clog formed) | Evaluation result ([1]; concentration 15%, injection sequence of table 1, effective = formation of a clog in secondary channel preventing sweat flow, not effective = no clog formed) | antiperspirant efficacy in vivo ([2]; known to be (not) effective antiperspirant agent in vivo) | Evaluation result [1] | antiperspirant efficacy in vivo ([2]; in vivo)
1 | aluminum chlorohydrate [ACH] | Effective | Effective | effective |  | 
2 | Aluminum Zirconium Glycine [AZG] |  |  |  | Effective | effective
